Values after ≈ are worked out from the molar mass of the structure shown.
Tests used:
[1] = DNDI: Cytotoxicity against L929 mouse fibroblasts, 72 hour.; type: toxicity, cell-based; settings: mouse, L929 mouse fibroblasts
Trypanosoma brucei = assay: DNDI: Inhibition of Human African Trypanosomiasis, SBRI 427, in vitro; type: functional, organism-based
[2] = Trypanosoma brucei, SBRI 427, read-out: IC50

| IC50 (Trypanosoma brucei; [2]) [µg/mL] | IC50 (Trypanosoma brucei) [µg/mL] | Compound | IC50 at 72 h [1] [µg/mL] |
| --- | --- | --- | --- |
| 2.16 (≈ 7.19 µM) |  | CCCCCC(C)NCc1nc(-c2cccc(C)c2)oc1C (centres undefined) | > 10 |
| 1.41 (≈ 4.69 µM) |  | CCCCCC(C)NCc1nc(-c2ccc(C)cc2)oc1C (centres undefined) | > 10 |
| 0.09 (≈ 0.255 µM) |  | CC(C)c1ccc(Oc2ncccc2/C(=N\O)NC2CCCCC2)cc1 | 6.75 (≈ 19.1 µM) |
| 0.83 (≈ 2.78 µM) |  | CCCCc1ccc(-c2nc(CNC3CCCC3)co2)cc1 | 2.52 (≈ 8.44 µM) |
| 0.16 (≈ 0.396 µM) |  | CCCCc1ccc(-c2nc(CNC3CCN(Cc4ccccc4)CC3)co2)cc1 | 0.96 (≈ 2.38 µM) |
| > 5 |  | O=C(OC1=CC(=O)N(C(=O)OCc2ccccc2)C1COCc1ccccc1)c1ccccc1 (centres undefined) | > 10 |
| 2.98 (≈ 8.91 µM) |  | CCCCc1ccc(-c2nc(CN[C@H](C)c3ccccc3)co2)cc1 | 3.32 (≈ 9.93 µM) |
| > 5 |  | O/N=C(\Nc1cccc(F)c1)c1cccnc1Oc1cc(Cl)ccc1Cl | 7.69 (≈ 19.6 µM) |
| > 5 |  | N#Cc1nc(-c2ccccc2)oc1N | > 10 |
| > 5 |  | Cc1cc(NCCN2CCOCC2)n2nc(-c3cccc(F)c3)cc2n1 | > 10 |
| > 5 |  | COc1ccc(-c2cc3[nH]c(-c4ccccc4)cc(=O)n3n2)cc1 | > 10 |
| 1.13 (≈ 2.9 µM) |  | CN(C)CCCNc1cc(-c2ccccc2)nc2cc(-c3cccc(F)c3)nn12 | 2.28 (≈ 5.85 µM) |
| > 5 |  | O=c1[nH]c(=O)c2sccc2[nH]1 | > 10 |
| > 5 |  | Fc1ccc(Oc2nc(Cl)nc3ccsc23)cc1 | > 10 |
| > 5 |  | CCCCc1ccc(-c2nc(COCC)co2)cc1 | > 10 |
| > 5 |  | COC(=O)c1sccc1NC(N)=O | > 10 |
| 1.6 (≈ 4.69 µM) | 0.89 (≈ 2.61 µM) | CCCCc1ccc(-c2nc(CNCCCN3CCCC3)co2)cc1 | 6.03 (≈ 17.7 µM) |
| > 5 |  | Fc1ccc(-c2cc3nc(-c4ccccc4)cc(NCCN4CCCCC4)n3n2)cc1 | > 10 |
| > 5 |  | CCCCc1ccc(-c2nc(-c3ccccc3)c(C)o2)cc1 | > 10 |
| 4.99 (≈ 15.7 µM) |  | CCCCCC(C)NCc1coc(-c2ccc([N+](=O)[O-])cc2)n1 (centres undefined) | 7.08 (≈ 22.3 µM) |
| > 5 |  | COc1ccc(CNC(c2nc(Cc3ccccc3)c(N3CCCCC3)o2)C2CCCCC2)cc1OC (centres undefined) | > 10 |
| > 5 |  | CCCCc1ccc(-c2nc(Nc3cccnc3)co2)cc1 | 6.24 (≈ 21.3 µM) |

| IC50 (Trypanosoma brucei; [2]) [µg/mL] | IC50 (Trypanosoma brucei) [µg/mL] | Compound | IC50 at 72 h [1] [µg/mL] |
| --- | --- | --- | --- |
| 2.71 (≈ 8.9 µM) |  | CCCCCC(C)NCc1nc(-c2ccccc2F)oc1C (centres undefined) | 8.59 (≈ 28.2 µM) |
| > 5 |  | CCCCc1ccc(-c2nc(CN)co2)cc1 | > 10 |
| 0.37 (≈ 1.14 µM) |  | CCCCc1ccc(-c2nc(CNCCc3cnc[nH]3)co2)cc1 | 2.43 (≈ 7.49 µM) |
| 4.3 (≈ 10.4 µM) |  | Fc1cccc(-c2cc3nc(-c4ccccc4)cc(NCCCn4ccnc4)n3n2)c1 | 5.91 (≈ 14.3 µM) |
| > 5 |  | CCCCc1ccc(-c2nc(C)c(C(=O)OC)o2)cc1 | > 10 |
| > 5 |  | CCCCc1ccc(-c2nc(CNCc3ccncc3)co2)cc1 | > 10 |
| > 5 |  | CCCCc1ccc(-c2nc(-c3ccccc3)c(-c3ccccc3)o2)cc1 | > 10 |
| > 5 |  | O=c1cc(-c2ccccc2)[nH]c2cc(-c3cccc(F)c3)nn12 | 4.88 (≈ 16 µM) |
| > 5 |  | c1ccc(-c2nc(C(NCc3ccco3)C3CC3)oc2N2CCOCC2)cc1 (centres undefined) | > 10 |
| > 5 |  | CCc1cccc(NS(=O)(=O)c2ccc(OC)c(OC)c2)c1 | > 10 |
| 2.44 (≈ 7.41 µM) |  | COc1ccc(-c2nc(CNCCC3CCCN3C)c(C)o2)cc1 (centres undefined) | > 10 |
| > 5 |  | CCOCCCNC(c1nc(Cc2ccccc2)c(N2CCOCC2)o1)C1CC1 (centres undefined) | > 10 |
| 0.554 (≈ 1.53 µM) |  | NCCCNc1cc(-c2ccccc2)nc2cc(-c3ccc(F)cc3)nn12 | 0.76 (≈ 2.1 µM) |
| 0.75 (≈ 2.62 µM) |  | CCCCNCc1coc(-c2ccc(CCCC)cc2)n1 | 2.5 (≈ 8.73 µM) |
| > 5 |  | Fc1cccc(-c2cc3nc(-c4ccccc4)cc(NCCN4CCOCC4)n3n2)c1 | > 10 |
| > 5 |  | CCC(C)C(NCC(C)C)c1nc(Cc2ccccc2)c(N2CCCCC2)o1 (centres undefined) | > 10 |
| 3.05 (≈ 9.12 µM) |  | CCCCc1ccc(-c2nc(CNCc3ccc(C)cc3)co2)cc1 | 2.63 (≈ 7.86 µM) |
| > 5 |  | O=C(NCC1C(O)=C(C(=O)c2ccccc2)C(=O)N1C(=O)OCc1ccccc1)OCc1ccccc1 (centres undefined) | 9.13 (≈ 18.2 µM) |
| > 5 |  | CCC(C)C(NCc1ccc(C)cc1)c1nc(Cc2ccccc2)c(N2CCCCC2)o1 (centres undefined) | > 10 |
| > 5 |  | c1ccc(Cc2nc(C(NCc3ccco3)C3CC3)oc2N2CCOCC2)cc1 (centres undefined) | > 10 |
| > 5 |  | CN(C)CCCNCc1coc(-c2ccc(OC3CCCC3)cc2)n1 | > 10 |
| > 5 |  | C[N+]1(C)CCN(c2cc(-c3ccccc3)nc3cc(-c4ccc(F)cc4)nn23)CC1 | > 10 |

Reference: ChEMBL document CHEMBL1857833, “Screening and optimization of specific chemical series against human African Trypanosomiasis (HAT)”
